Assay type in all cases: cell-based
Assay [1] relates to E. coli NRZ-00401 (metallo β-lactamase VIM-1). Kind of assay: MIC, broth microdilution (CLSI), CAMHB. The note with it: Escherichia coli; monosubstance; Ec NRZ00401; read-out: MIC. Here is the method: (§1) MIC-testing was done immediately after preparation of the dilutions. All tests were done in duplicate and repeated once on a separate occasion.
(§2) 1 mL of the bacterial suspension was transferred into a tube containing 10 mL CAMHB and was vortexed thoroughly. (S. pneumoniae 1 mL in 10 mL CAMHB+5% lysed horse blood). Columns 1-15 of the 96-well plate were inoculated with 5 μL of this suspension (1-15=antibacterial solution, 16=sterile medium without test item).
(§3) Turbidity was read visually with a mirror.
A general note: Dilution methods test growth across graded concentrations, often in twofold steps.

Assay [2] has as its system E. coli ATCC 25922. Description: MIC, broth microdilution (CLSI), CAMHB. The note with it: Escherichia coli; monosubstance; Ec ATCC25922; read-out: MIC. As for the experimental part: as §1, §2, §3
The test system of assay [3] is E. coli NRZ-00302 (metallo β-lactamase NDM-1). Kind of assay: MIC, broth microdilution (CLSI), CAMHB. The note with it: Escherichia coli; monosubstance; Ec NRZ00302; read-out: MIC. As for the experimental part:
as §1, §2, §3

Assay [4] relates to E. coli GNS-2601 (ESBL CTX-M-15). Kind of assay: MIC, broth microdilution (CLSI), CAMHB. The note with it: Escherichia coli; monosubstance; Ec GNS2601; read-out: MIC. Here is the method: as §1, §2, §3
The test system of a further assay is E. coli NRZ-00401. Description: Time-kill curves. The note with it: E. coli NRZ00401; for growth- and kill rates k ('+' = growth, unmarked = kill rate): first four hours.
In another assay the test system is E. coli GNS-2601. Description: Time-kill curves. The note with it: E. coli GNS2601; for growth- and kill rates k ('+' = growth, unmarked = kill rate): first four hours.
Assay [5] relates to E. coli ATCC 25922, NRZ-00401, NRZ-00302 and GNS-2601. Kind of assay: Time-kill curves, statements on the four E. coli strains.
The next assay relates to E. coli NRZ-00302. Kind of assay: Time-kill curves. The note with it: E. coli NRZ00302; for growth- and kill rates k ('+' = growth, unmarked = kill rate): first four hours.
In assay [6] the test system is E. coli ATCC 25922. Kind of assay: Time-kill curves. The note with it: E. coli ATCC25922; for growth- and kill rates k ('+' = growth, unmarked = kill rate): first four hours.
Assay [7] concerns S. aureus NRS-119 (MRSA, linezolid- and quinolone-resistant). Kind of assay: MIC, broth microdilution (CLSI), CAMHB. The note with it: Staphylococcus aureus; monosubstance; Sa NRS119; read-out: MIC. Here is the method:
as §1, §2, §3

For the next assay, the system named is K. pneumoniae ATCC 13883. Kind of assay: MIC, broth microdilution (CLSI), CAMHB. The note with it: Klebsiella pneumoniae; monosubstance; Kp ATCC13883; read-out: MIC. As for the experimental part: as §1, §2, §3
Assay [8] concerns E. cloacae ATCC 13047. Kind of assay: MIC, broth microdilution (CLSI), CAMHB. The note with it: Enterobacter cloacae; monosubstance; Ecl ATCC13047; read-out: MIC. Here is the method:
as §1, §2, §3

In assay [9] the test system is E. faecium UW 3695 (linezolid and quinolone-resistant). Kind of assay: MIC, broth microdilution (CLSI), CAMHB. The note with it: Enterococcus faecium; monosubstance; Efc UW3695; read-out: MIC. As for the experimental part: as §1, §2, §3
In assay [10] the test system is S. aureus Visa Mu 50 (MRSA, vancomycin intermediate susceptible). Description: MIC, broth microdilution (CLSI), CAMHB. The note with it: Staphylococcus aureus; monosubstance; Sa VisaMu50; read-out: MIC. Here is the method: as §1, §2, §3
The test system of another assay is E. faecium DSMZ 2146. Kind of assay: MIC, broth microdilution (CLSI), CAMHB. The note with it: Enterococcus faecium; monosubstance; Efc DSMZ2146; read-out: MIC. As for the experimental part: as §1, §2, §3
The test system of assay [11] is six selected indicator strains. Kind of assay: Checkerboard titration, statements on the six indicator strains. The note with it: read-out: MIC of Compound 1 alone, checkerboard; strains as worded in the text. An excerpt:
(§4) The checkerboard consists of columns in which each well contains the same amount of antibacterial A being over i dilutions along the x-axis, and in rows in which each well contains the same amount of antibacterial B over j dilutions on the y-axis, i.e. serial dilutions of antibacterials A and B, respectively, are titrated in a rectangular fashion.
(§5) The fractional inhibitory concentration (FIC) is a mathematical expression of the effect of the combination of two antibacterial agents A and B. The FICs were calculated as the MIC of antibacterial A and antibacterial B in combination divided by the MIC of antibacterial A or antibacterial B alone.
(§6) The checkerboard titrations were performed three times.

Assay [12] has as its system E. coli ATCC 25922. Kind of assay: Checkerboard titration of Compound 1 and colistin. The note with it: Escherichia coli, ATCC25922, read-out: MIC (agent alone).
From the text: as §4, §5
(§7) The FICs and FIC index, respectively, are calculated according to the following equations:
(§8) FIC(A)=MIC(A in the presence of B)/MIC(A alone)
(§9) FIC(B)=MIC(B in the presence of A)/MIC(B alone)
as §6

Assay [13] relates to E. cloacae ATCC 13047. Kind of assay: Checkerboard titration of Compound 1 and colistin. The note with it: Enterobacter cloacae, ATCC13047, checkerboard, read-out: MIC (agent alone).
From the text: as §4, §5, §7, §8, §9, §6

Assay [14] has as its system Gram-positive strains tested. Description: MIC testing, statements on the Gram-positive strain panel. The note with it: all Gram-positive strains tested; read-out: MIC (inhibitory concentration).
From the text: as §1

For the next assay, the system named is S. pneumoniae ATCC 33400. Description: MIC, broth microdilution (CLSI), CAMHB. The note with it: Streptococcus pneumoniae; monosubstance; Spn ATCC33400; read-out: MIC. Here is the method: as §1, §2, §3
The test system of another assay is S. aureus ATCC 29213. Description: MIC, broth microdilution (CLSI), CAMHB. The note with it: Staphylococcus aureus; monosubstance; Sa ATCC29213; read-out: MIC. As for the experimental part:
as §1, §2, §3

The test system of assay [15] is S. aureus ATCC 33593 (MRSA). Description: MIC, broth microdilution (CLSI), CAMHB. The note with it: Staphylococcus aureus; monosubstance; Sa ATCC33593; read-out: MIC. As for the experimental part:
as §1, §2, §3

A further assay has as its system E. faecalis V583 (VanB). Kind of assay: MIC, broth microdilution (CLSI), CAMHB. The note with it: Enterococcus faecalis; monosubstance; Ef V583; read-out: MIC. As for the experimental part:
as §1, §2, §3

The subject of assay [16] is S. pneumoniae BAY 19397 (penicillin-, macrolide-, quinolone-resistant). Kind of assay: MIC, broth microdilution (CLSI), CAMHB. The note with it: monosubstance; Spn 19397; listed as MCB. Here is the method:
as §1, §2, §3

The test system of the next assay is E. faecalis ATCC 29212. Description: MIC, broth microdilution (CLSI), CAMHB. The note with it: Enterococcus faecalis; monosubstance; Ef ATCC29212; read-out: MIC. As for the experimental part:
as §1, §2, §3

The test system of assay [17] is P. aeruginosa NRZ-00425 (VIM-2 β-lactamase). Description: microbe, parasite or virus in culture. The note with it: Pseudomonas aeruginosa, checkerboard, read-out: MIC (agent alone).
From the text: as §4, §5, §7, §8, §9, §6

The test system of assay [18] is S. aureus DSM 11823, clone 16 (MSSA, quinolone-resistant). Description: microbe, parasite or virus in culture. The note with it: Staphylococcus aureus. As for the experimental part: as §1, §2, §3

≈ marks a conversion by molar mass, not a printed value. Where “and” joins values, the source holds several entries; their conditions need not be identical. Equal values may be shown once.

Consider `C[C@@H]1O[C@@H]1P(=O)(O)O` [fosfomycin], for which the MIC in [1] was 2 µg/mL (≈ 14.5 µM); in the assay on E. coli ATCC 25922 [2], 2 µg/mL (≈ 14.5 µM); in assay [3], 64 µg/mL (≈ 464 µM); in assay [4] it was 64 µg/mL (≈ 464 µM). Moreover, the “growth- and kill rates k ('+' = growth, unmarked = kill rate)” value with E. coli NRZ-00401 (single agent at 1x its MIC) was “+0.40 h^−1”; in the assay with E. coli NRZ-00401 (single agent at 2x its MIC), “+0.32 h^−1”; with E. coli GNS-2601 (single agent at 1x its MIC) it was 1.21 h⁻¹; with E. coli GNS-2601 (single agent at 2x its MIC), 1.85 h⁻¹; with E. coli NRZ-00302 (single agent at 1x its MIC), 1.67 h⁻¹; with E. coli NRZ-00302 (single agent at 2x its MIC), 2.09 h⁻¹. For the same compound, the “growth- and kill rates k ('+' = growth, unmarked = kill rate)” value was “+0.68 h^−1” in the assay with E. coli ATCC 25922 [6] (single agent at 1x its MIC) and “+0.72 h^−1” in the assay with E. coli ATCC 25922 [6] (single agent at 2x its MIC). The “Viable counts at 8 h of exposure” value with E. coli NRZ-00401 (single agent at 1x its MIC) is reported as 7.95 log10 CFU/mL; in the assay on E. coli NRZ-00401 (single agent at 2x its MIC), 6.65 log10 CFU/mL; in the assay on E. coli GNS-2601 (single agent at 1x its MIC) it was 5.08 log10 CFU/mL; in the assay on E. coli GNS-2601 (single agent at 2x its MIC) it was 3.45 log10 CFU/mL; in the assay on E. coli NRZ-00302 (single agent at 1x its MIC) it was 2.78 log10 CFU/mL; in the assay with E. coli NRZ-00302 (single agent at 2x its MIC) it was 1.30 log10 CFU/mL. For the same compound, the “Viable counts at 8 h of exposure” value is recorded as 8.95 log10 CFU/mL in the assay on E. coli ATCC 25922 [6] (single agent at 1x its MIC) and 8.59 log10 CFU/mL in the assay with E. coli ATCC 25922 [6] (single agent at 2x its MIC). Further, the “type of activity in time-kill” value is “bacteriostatically” in assay [5] (strains ATCC 25922, NRZ-00401); “bactericidal” in assay [5] (strains NRZ-00302 and GNS-2601).

Consider `CC(=O)NC[C@H]1CN(c2ccc(OCC3(O)CCN(c4cc5c(cc4F)c(=O)c(C(=O)O)cn5C4CC4)CC3)c(F)c2)C(=O)O1` [Compound 1, 7-(4-{4-[(5S)-5-(acetylamino-methyl)-2-oxo-oxazolidin-3-yl]-2-fluoro-phenoxymethyl}-4-hydroxy-piperidin-1-yl)-1-cyclopropyl-6-fluoro-4-oxo-1,4-dihydro-quinoline-3-carboxylic], for which the MIC is 1 µg/mL (≈ 1.6 µM) in assay [7]; 16 µg/mL (≈ 25.5 µM) in assay [1]; 128 µg/mL (≈ 204 µM) in the assay on K. pneumoniae ATCC 13883; 128 µg/mL (≈ 204 µM) in the assay with E. cloacae ATCC 13047 [8]; 0.06 µg/mL (≈ 0.0958 µM) in assay [9]; 0.06 µg/mL (≈ 0.0958 µM) in assay [10]. The MIC in the assay on E. faecium DSMZ 2146 is 0.06 µg/mL (≈ 0.0958 µM); in assay [11] it was more than 256 µg/mL; with E. coli ATCC 25922 [12] it was 8 to 16 µg/mL; in the assay on E. cloacae ATCC 13047 [13], more than 256 µg/mL; in [14], less than 0.25 µg/mL.

Turning to `CC(=O)NC[C@H]1CN(c2ccc(OCC3(O)CCN(c4cc5c(cc4F)c(=O)c(C(=O)O)cn5C4CC4)CC3)c(F)c2)C(=O)O1` [Compound 1, 7-(4-{4-[(5S)-5-(acetylamino-methyl)-2-oxo-oxazolidin-3-yl]-2-fluoro-phenoxymethyl}-4-hydroxy-piperidin-1-yl)-1-cyclopropyl-6-fluoro-4-oxo-1,4-dihydro-quinoline-3-carboxylic acid], the MIC with S. pneumoniae ATCC 33400 was determined as 0.0075 µg/mL (≈ 0.012 µM); with S. aureus ATCC 29213, 0.25 µg/mL (≈ 0.399 µM); in assay [15] it was 0.03 µg/mL (≈ 0.0479 µM); in the assay with E. faecalis V583 (VanB), 0.03 µg/mL (≈ 0.0479 µM); in the assay with E. coli ATCC 25922 [2] it was 16 µg/mL (≈ 25.5 µM); in assay [16], 0.0004 µg/mL (≈ 0.000638 µM). The results for the MIC (with E. faecalis ATCC 29212; in [17]; in [18]) were 0.03 µg/mL (≈ 0.0479 µM), 128 to 256 µg/mL and 0.03 µg/mL (≈ 0.0479 µM), respectively. Further, the “Viable counts at 8 h of exposure” value was 6.32 log10 CFU/mL in the assay on E. coli NRZ-00401 (single agent at 1x its MIC); 8.34 log10 CFU/mL and 7.34 log10 CFU/mL in the assay on E. coli GNS-2601 (single agent at 1x its MIC, listed as MCB); 6.29 log10 CFU/mL with E. coli GNS-2601 (single agent at 2x its MIC); 8.28 log10 CFU/mL in the assay on E. coli NRZ-00302 (single agent at 1x its MIC); 5.69 log10 CFU/mL in the assay with E. coli NRZ-00302 (single agent at 2x its MIC); 4.69 log10 CFU/mL in the assay with E. coli ATCC 25922 [6] (single agent at 1x its MIC). Moreover, the “Viable counts at 8 h of exposure” value in the assay on E. coli ATCC 25922 [6] (single agent at 2x its MIC, listed as MCB) was 2.61 log10 CFU/mL and 2.62 log10 CFU/mL.

Source of the values: US20160113921A1, “COMBINATION THERAPY COMPRISING OXAZOLIDINONE-QUINOLONES FOR USE IN TREATING BACTERIAL INFECTIONS” (MORPHOCHEM AKTIENGESELLSCHAFT FÜR KOMBINATORISCHE CHEMIE, priority 2013, published 2016).
